# How the values were obtained:
# [1] = tested on: early rheumatoid arthritis (RA) patients with active joint disease; assay: Phase IIa placebo-controlled study in early rheumatoid arthritis patients: CDAI; format: in vivo, human; conditions: for CDAI group mean, Baseline / CDAI group mean, Screening / CDAI group mean, Week 4 / CDAI group mean, Week 2 / CDAI group mean, Week 5 / CDAI Difference / CDAI Difference in %: n = 31; for CDAI group mean, Baseline / CDAI group mean, Screening: before treatment; for CDAI group mean, Week 4: end of treatment; for CDAI group mean, Week 2: mid-treatment; for CDAI group mean, Week 5: one week follow-up after last dosage; for CDAI Difference / CDAI Difference in %: week 4 vs baseline
# Description: (§1) The study population will consist of newly diagnosed subjects with severe active RA (CDAI (Clinical disease activity score)>22) who are to start up-titration with methotrexate (MTX).
# The doses used in this Example are calculated based on the specific acetate salt form.
# The study population will consist of newly diagnosed subjects with severe active RA (CDAI >22) who are to start up-titration with MTX. A minimum of 90 subjects are expected to complete the study; plus 45 subjects from Bulgaria and/or Moldova for a sub-study. Up to 120 subjects are planned to be enrolled to account for discontinuation rate, and up to 60 subjects for the sub-study.
# The CDAI is a clinical composite score for following patients with RA.
# Descriptive changes in CDAI where CDAI=SJC (28)+TJC (28)+PGA+IGA; • SJC (28): Swollen 28-Joint Count (shoulders, elbows, wrists, MCPs, PIPs including thumb IP, knees); • TJC (28): Tender 28-Joint Count (shoulders, elbows, wrists, MCPs, PIPs including thumb IP, knees); • PGA: Patient Global Disease Activity (patient's self-assessment of overall RA disease activity on a scale 0-100 where 100 is maximal activity); • IGA: Physician's Global Disease Activity (evaluator's assessment of the subject's overall RA disease activity on a scale 0-100 where 100 is maximal activity)
# The CDAI will be scored at screening, baseline, after 2 weeks and 4 weeks treatment, and at the final visit (one week after final dose).
# [2] = tested on: MC3R; conditions: cited from earlier work
# [3] = tested on: peritonitis; conditions: oral; cited from earlier work
# [4] = Phase I repeated dose study, peak and trough concentrations at steady conditions; format: in vivo, human; conditions: 200 mg once daily
# [5] = tested on: melanocytes; conditions: cited from earlier work
# [6] = tested on: acute peritonitis induced by zymosan A in mice; assay: Zymosan A-induced acute peritonitis in mice: IL-1β, IL-6 and neutrophil accumulation; format: in vivo; conditions: 1 mg/kg intraperitoneal 30 minutes before zymosan, 12 hours, N=6
# Description: Acute peritonitis was induced by the injection of 1 mg zymosan A (Sigma-Aldrich) i.p. in 0.5 ml sterile PBS in mice. Twelve hours later the mice were sacrificed by CO2 exposure, and peritoneal cavities were washed with 4 ml ice-cold PBS containing 3 mM EDTA. Cells were stained with Turk's solution (0.01% crystal violet in 3% acetic acid) and counted using a Neubauer hemocytometer or were stained with FITC-conjugated mAb for Ly-6G/Gr1, F4/80, and corresponding isotype controls (eBioscience, Hatfield, U.K.), and subjected to flow-cytometry analysis using a BD FACSCalibur platform (BD Biosciences, Oxford, U.K.). Levels of IL-1B and IL-6 in quick frozen samples were quantified according to the manufacturer's instructions using ELISA Ready-SET-Go! (eBioscience). All animal studies were approved by and performed under the guidelines of the Ethical Committee for the Use of Animals, Barts and The London School of Medicine and Home Office regulations (Guidance on the Operation of Animals, Scientific Procedures Act, 1986). Male (7-8 wk old) C57BL/6J wild-type (WT) mice were purchased from Charles River Laboratories. Test Item A, 1 mg/kg or vehicle treatment were given intraperitoneal 30 minutes before induction of the acute peritonitis. N=6 for in both groups.
# [7] = tested on: MC1R; conditions: cited from earlier work
# [8] = tested on: macrophages; conditions: cited from earlier work
# [9] = tested on: experimental inflammatory arthritis; conditions: oral; cited from earlier work
# [10] = Phase IIa study in early RA patients: blood pressure and clinically notable vital sign abnormalities; format: in vivo, human; conditions: for MAP Average/Median: MAP = DAP + ⅓(SAP − DAP); for CNA (clinically notable vital sign abnormalities): SAP ≥160, <90, DAP ≥105, <50
# Description: as §1
# Safety measures (AEs, SAEs, including laboratory abnormalities and vital signs such as blood pressure) will be registered during the whole study duration.
# [11] = 50 mg AP1189 once daily plus MTX
# [12] = 100 mg AP1189 once daily plus MTX
smiles,measurement,setting,value
"NC(N)=N/N=C/C=C/c1cccn1-c1ccccc1[N+](=O)[O-] [AP1189, (E)-N-trans-{3-[1-(2-nitrophenyl)-1H-pyrrol-2-yl]-allylidene}-aminoguanidium acetate]","CDAI group mean, Baseline",[1]; [11],36.1
same,"CDAI group mean, Screening",[1]; [11],35.6
same,"CDAI group mean, Week 4",[1]; [11],24.2
same,"CDAI group mean, Week 2",[1]; [11],29.9
same,"CDAI group mean, Week 5",[1]; [11],22.9
same,CDAI Difference,[1]; [11],−11.9
same,CDAI Difference in %,[1]; [11],33%
same,"CDAI group mean, Baseline",[1]; [12],39
same,"CDAI group mean, Screening",[1]; [12],38.9
same,"CDAI group mean, Week 4",[1]; [12],23.9
same,"CDAI group mean, Week 2",[1]; [12],28.9
same,"CDAI group mean, Week 5",[1]; [12],21.3
same,CDAI Difference,[1]; [12],−15.1
same,CDAI Difference in %,[1]; [12],39%
same,effect in reducing CDAI,"[1]; both tested dosages, 50 mg and 100 mg",significant effect
same,ERK1/2 phosphorylation,[2]; MC3R,cause ERK1/2 phosphorylation
same,canonical cAMP generation,[2]; MC3R,does not induce canonical CAMP generation
same,agonist character at MC3R,[2],biased agonist
same,anti-inflammatory action in peritonitis,[3],elicits anti-inflammatory actions
same,"C Trough (Mean +/− SD, N = 9)",[4],186 ± 45 ng/mL
same,melanogenesis,[5],no melanogenesis was induced
same,reduction of neutrophil accumulation compared to pretreatment with vehicle,[6],70%
same,reduction of IL-1β levels compared to pretreatment with vehicle,[6]; p<0.05 vs vehicle,37%
same,reduction of IL-6 levels compared to pretreatment with vehicle,[6]; p<0.05 vs vehicle,59%
same,ERK1/2 phosphorylation,[7]; MC1R,cause ERK1/2 phosphorylation
same,canonical cAMP generation,[7]; MC1R,does not induce canonical CAMP generation
same,agonist character at MC1R,[7],biased agonist
same,cytokine release,[8],reduce cytokine release
same,macroscopic and histological parameters of joint disruption,[9],significant reduction
same,DAP Average/Median,"[10]; 50 mg AP1189, 4 Weeks, n 33",79.9 mmHg
same,SAP Average/Median,"[10]; 50 mg AP1189, 4 Weeks, n 33",129.1 mmHg
same,MAP Average/Median,"[10]; 50 mg AP1189, 4 Weeks, n 33",96.3 mmHg
same,CNA (clinically notable vital sign abnormalities),"[10]; 50 mg AP1189, 4 Weeks, n 33",2 (6%)
same,DAP Average/Median,"[10]; 50 mg AP1189, Base Line, n 33",80.0 mmHg
same,SAP Average/Median,"[10]; 50 mg AP1189, Base Line, n 33",131.3 mmHg
same,MAP Average/Median,"[10]; 50 mg AP1189, Base Line, n 33",97.1 mmHg
same,CNA (clinically notable vital sign abnormalities),"[10]; 50 mg AP1189, Base Line, n 33",4 (11%)
same,decrease in DAP after 4 weeks treatment,[10]; 50 mg AP1189 group,0.1 mmHg
same,decrease in MAP after 4 weeks treatment,[10]; 50 mg AP1189 group,0.8 mmHg
same,decrease in SAP after 4 weeks treatment,[10]; 50 mg AP1189 group,2.2 mmHg
same,DAP Average/Median,"[10]; 100 mg AP1189, 4 Weeks, n 34",80.3 mmHg
same,SAP Average/Median,"[10]; 100 mg AP1189, 4 Weeks, n 34",126.8 mmHg
same,MAP Average/Median,"[10]; 100 mg AP1189, 4 Weeks, n 34",95.8 mmHg
same,CNA (clinically notable vital sign abnormalities),"[10]; 100 mg AP1189, 4 Weeks, n 34",1 (3%)
same,DAP Average/Median,"[10]; 100 mg AP1189, Base Line, n 34",81.1 mmHg
same,SAP Average/Median,"[10]; 100 mg AP1189, Base Line, n 34",129.9 mmHg
same,MAP Average/Median,"[10]; 100 mg AP1189, Base Line, n 34",97.4 mmHg
same,CNA (clinically notable vital sign abnormalities),"[10]; 100 mg AP1189, Base Line, n 34",4 (11%)
same,decrease in DAP after 4 weeks treatment,[10]; 100 mg AP1189 group,0.8 mmHg
same,decrease in MAP after 4 weeks treatment,[10]; 100 mg AP1189 group,1.6 mmHg
same,decrease in SAP after 4 weeks treatment,[10]; 100 mg AP1189 group,3.1 mmHg
same,number of observed abnormalities in blood pressure,"[10]; both treatment groups (50 mg and 100 mg), 4 weeks, no change in placebo group",reduced

# Reference: US20250302804A1, “RESOMELAGON AND ITS DERIVATIVES FOR THE TREATMENT OF CARDIOVASCULAR DISEASE, HYPERTENSION AND ATHEROSCLEROSIS” (SYNACT PHARMA ApS, priority 2022, published 2025)
